Where “and” joins values, the source holds several entries; their conditions need not be identical. Equal entries are not always repeated. Toxic doses and inconclusive results are not listed.
Test system: CD2F1 mice, ip Colon 26 adenocarcinoma, median survival T/C
Test: NCI In Vivo Anticancer Drug Screen. Data for tumor model Colon 26 Adenocarcinoma (intraperitoneal) in CD2F1 (CDF1) mice
Conditions: endpoint: median survival time, higher = longer survival
Experimental: The antitumor activity of compounds was measured in mice bearing transplantable tumors. Survival or tumor size were measured and the results are expressed as the measurement made in the treated group (T) divided by the measurement made in the vehicle treated control group (C). The tumor model used in this assay is Colon 26 Adenocarcinoma (intraperitoneal) in CD2F1 (CDF1) mice

[1] = dose: 8.0 mg/kg/injection, schedule: Q04DX003 (ip), vehicle: Klucel (hydroxypropylcellulose) (HPC)
[2] = dose: 16.0 mg/kg/injection, schedule: Q04DX003 (ip), vehicle: Klucel (hydroxypropylcellulose) (HPC)
[3] = dose: 32.0 mg/kg/injection, schedule: Q04DX003 (ip), vehicle: Klucel (hydroxypropylcellulose) (HPC)
[4] = dose: 64.0 mg/kg/injection, schedule: Q04DX003 (ip), vehicle: Klucel (hydroxypropylcellulose) (HPC)
[5] = dose: 2.0 mg/kg/injection, schedule: Q01DX009 (ip), vehicle: saline
[6] = dose: 4.0 mg/kg/injection, schedule: Q01DX009 (ip), vehicle: saline
[7] = dose: 8.0 mg/kg/injection, schedule: Q01DX009 (ip), vehicle: saline
[8] = dose: 16.0 mg/kg/injection, schedule: Q01DX009 (ip), vehicle: saline
[9] = dose: 12.5 mg/kg/injection, schedule: Q04DX003 (ip), vehicle: saline
[10] = dose: 25.0 mg/kg/injection, schedule: Q04DX003 (ip), vehicle: saline
[11] = dose: 50.0 mg/kg/injection, schedule: Q04DX003 (ip), vehicle: saline
[12] = dose: 100.0 mg/kg/injection, schedule: Q04DX003 (ip), vehicle: saline
[13] = dose: 200.0 mg/kg/injection, schedule: Q04DX003 (ip), vehicle: saline

For CC(C)NCC(O)COc1cccc2ccccc12 (centres undefined), the T/C (dose: 4.0 mg/kg/injection, schedule: Q04DX003 (ip), vehicle: Klucel (hydroxypropylcellulose) (HPC)) was 109 % of control, the T/C [1] was 102 % of control and the T/C [2] was 107 % of control. For the same compound, the T/C [3] was 101 % of control and the T/C [4] was 107 % of control.

COc1cccc2c1C(=O)c1c(O)c3c(c(O)c1C2=O)C[C@@](O)(C(C)=O)C[C@@H]3OC1CC(N(Cc2ccccc2)Cc2ccccc2)C(O)C(C)O1 (some centres undefined) was tested, and the T/C (dose: 3.0 mg/kg/injection, schedule: Q04DX002 (ip), vehicle: saline with Tween-80) was 104 % of control.

For N/C(=N\O)c1cn(C2OC(CO)C(O)C2O)c2ncnc(N)c12 (centres undefined), the T/C (dose: 2.0 mg/kg/injection, schedule: Q04DX003 (ip), vehicle: Klucel (hydroxypropylcellulose) (HPC)) was 116 % of control and the T/C [2] was 167 % of control.

For O=C1c2ccccc2C(=O)c2c(NCCNCCO)ccc(NCCNCCO)c21, the T/C [5] was 191 % of control, the T/C (dose: 2.5 mg/kg/injection, schedule: Q01DX009 (ip), vehicle: saline) was 200 % of control and 223 % of control and the T/C (dose: 2.62 mg/kg/injection, schedule: Q01DX009 (ip), vehicle: saline) was 172 % of control. For the same compound, the T/C (dose: 3.89 mg/kg/injection, schedule: Q01DX009 (ip), vehicle: saline) was 209 % of control, the T/C (dose: 3.89 mg/kg/injection, schedule: Q01DX009 (sc), vehicle: saline) was 104 % of control and the T/C (dose: 4.0 mg/kg/injection, schedule: Q01DX009 (ip), vehicle: acid diluted with saline) was 182 % of control. The T/C [6] was 226 % of control, the T/C (dose: 5.0 mg/kg/injection, schedule: Q01DX009 (ip), vehicle: saline) was 193 % of control and 223 % of control and the T/C (dose: 5.25 mg/kg/injection, schedule: Q01DX009 (ip), vehicle: saline) was 213 % of control. For the same compound, the T/C (dose: 6.22 mg/kg/injection, schedule: Q04DX003 (iv), vehicle: saline) was 110 % of control, the T/C (dose: 6.48 mg/kg/injection, schedule: Q01DX009 (ip), vehicle: saline) was 209 % of control and the T/C (dose: 6.48 mg/kg/injection, schedule: Q01DX009 (sc), vehicle: saline) was 104 % of control. The T/C (dose: 7.78 mg/kg/injection, schedule: Q01DX001 (iv), vehicle: saline) was 104 % of control, the T/C (dose: 8.0 mg/kg/injection, schedule: Q01DX009 (ip), vehicle: acid diluted with saline) was 219 % of control and the T/C [7] was 236 % of control. For the same compound, the T/C [1] was 168 % of control, the T/C (dose: 8.0 mg/kg/injection, schedule: Q04DX003 (ip), vehicle: water) was 121 % of control and 209 % of control and the T/C (dose: 10.0 mg/kg/injection, schedule: Q01DX009 (ip), vehicle: saline) was 212 % of control and 267 % of control. The T/C (dose: 10.4 mg/kg/injection, schedule: Q04DX003 (iv), vehicle: saline) was 106 % of control, the T/C (dose: 10.5 mg/kg/injection, schedule: Q01DX009 (ip), vehicle: saline) was 294 % of control and the T/C (dose: 10.8 mg/kg/injection, schedule: Q01DX009 (ip), vehicle: saline) was 182 % of control. The T/C (dose: 10.8 mg/kg/injection, schedule: Q01DX009 (sc), vehicle: saline) was 105 % of control, the T/C (dose: 13.0 mg/kg/injection, schedule: Q01DX001 (iv), vehicle: saline) was 116 % of control and the T/C (dose: 16.0 mg/kg/injection, schedule: Q01DX009 (ip), vehicle: acid diluted with saline) was 219 % of control. The T/C [8] was 305 % of control, the T/C [2] was 200 % of control and 170 % of control and 220 % of control and the T/C (dose: 16.0 mg/kg/injection, schedule: Q04DX003 (ip), vehicle: water) was 188 % of control and 287 % of control. The T/C (dose: 17.3 mg/kg/injection, schedule: Q04DX003 (ip), vehicle: saline) was 189 % of control, the T/C (dose: 17.3 mg/kg/injection, schedule: Q04DX003 (iv), vehicle: saline) was 101 % of control and the T/C (dose: 18.0 mg/kg/injection, schedule: Q01DX009 (ip), vehicle: saline) was 182 % of control. For the same compound, the T/C (dose: 18.0 mg/kg/injection, schedule: Q01DX009 (sc), vehicle: saline) was 99 % of control, the T/C (dose: 20.0 mg/kg/injection, schedule: Q01DX009 (ip), vehicle: saline) was 193 % of control and the T/C (dose: 21.0 mg/kg/injection, schedule: Q01DX009 (ip), vehicle: saline) was 268 % of control. For the same compound, the T/C (dose: 21.6 mg/kg/injection, schedule: Q01DX001 (iv), vehicle: saline) was 100 % of control, the T/C (dose: 25.0 mg/kg/injection, schedule: Q07DX003 (iv), vehicle: Klucel (hydroxypropylcellulose) (HPC)) was 104 % of control and the T/C (dose: 28.8 mg/kg/injection, schedule: Q04DX003 (ip), vehicle: saline) was 150 % of control. For the same compound, the T/C (dose: 28.8 mg/kg/injection, schedule: Q04DX003 (iv), vehicle: saline) was 101 % of control, the T/C (dose: 30.0 mg/kg/injection, schedule: Q01DX009 (sc), vehicle: saline) was 90 % of control and the T/C (dose: 32.0 mg/kg/injection, schedule: Q01DX009 (ip), vehicle: acid diluted with saline) was 274 % of control. For the same compound, the T/C [3] was 162 % of control and 182 % of control, the T/C (dose: 32.0 mg/kg/injection, schedule: Q04DX003 (ip), vehicle: water) was 159 % of control and 287 % of control and the T/C (dose: 36.0 mg/kg/injection, schedule: Q01DX001 (iv), vehicle: saline) was 109 % of control. The T/C (dose: 42.0 mg/kg/injection, schedule: Q01DX009 (ip), vehicle: saline) was 268 % of control, the T/C (dose: 48.0 mg/kg/injection, schedule: Q04DX003 (ip), vehicle: saline) was 161 % of control and the T/C (dose: 48.0 mg/kg/injection, schedule: Q04DX003 (iv), vehicle: saline) was 108 % of control. The T/C (dose: 50.0 mg/kg/injection, schedule: Q07DX003 (iv), vehicle: Klucel (hydroxypropylcellulose) (HPC)) was 108 % of control, the T/C (dose: 60.0 mg/kg/injection, schedule: Q01DX001 (iv), vehicle: saline) was 105 % of control and the T/C [4] was 163 % of control and 173 % of control. The T/C (dose: 64.0 mg/kg/injection, schedule: Q04DX003 (ip), vehicle: water) was 177 % of control and 209 % of control and the T/C (dose: 80.0 mg/kg/injection, schedule: Q04DX003 (ip), vehicle: saline) was 165 % of control.

With COc1cc([C@@H]2c3cc4c(cc3[C@@H](OC3OC5CO[C@@H](c6cccs6)OC5C(O)C3O)[C@H]3COC(=O)[C@H]23)OCO4)cc(OC)c1O (some centres undefined) the T/C (dose: 5.0 mg/kg/injection, schedule: Q03DX002 (ip), vehicle: other) was 90 % of control, the T/C (dose: 10.0 mg/kg/injection, schedule: Q03DX002 (ip), vehicle: other) was 92 % of control and the T/C (dose: 30.0 mg/kg/injection, schedule: Q03DX002 (ip), vehicle: other) was 104 % of control.

With N=C(N)SCc1c2ccccc2c(CSC(=N)N)c2ccccc12 the T/C [9] was 241 % of control, the T/C [10] was 186 % of control and the T/C [11] was 248 % of control. For the same compound, the T/C [12] was 216 % of control and the T/C [13] was 197 % of control.

For Cc1cn(C2CC(O)C(CO)O2)c(=O)[nH]c1=O (centres undefined), the T/C [9] was 98 % of control, the T/C [10] was 98 % of control and the T/C [11] was 98 % of control. The T/C (dose: 64.0 mg/kg/injection, schedule: Q04DX002 (ip), vehicle: suspension in saline) was 101 % of control, the T/C [12] was 96 % of control and 100 % of control and the T/C (dose: 128.0 mg/kg/injection, schedule: Q04DX002 (ip), vehicle: saline) was 88 % of control. For the same compound, the T/C (dose: 128.0 mg/kg/injection, schedule: Q04DX002 (ip), vehicle: suspension in saline) was 100 % of control, the T/C [13] was 99 % of control and 100 % of control and the T/C (dose: 256.0 mg/kg/injection, schedule: Q04DX002 (ip), vehicle: suspension in saline) was 94 % of control. The T/C (dose: 400.0 mg/kg/injection, schedule: Q04DX003 (ip), vehicle: saline) was 116 % of control and 98 % of control, the T/C (dose: 512.0 mg/kg/injection, schedule: Q04DX002 (ip), vehicle: suspension in saline) was 94 % of control and the T/C (dose: 1024.0 mg/kg/injection, schedule: Q04DX002 (ip), vehicle: saline) was 92 % of control. For the same compound, the T/C (dose: 1024.0 mg/kg/injection, schedule: Q04DX002 (ip), vehicle: suspension in saline) was 95 % of control.

In the case of Cc1c(N)nc([C@H](CC(N)=O)NC[C@H](N)C(N)=O)nc1C(=O)N[C@H](C(=O)N[C@H](C)[C@@H](O)[C@H](C)C(=O)N[C@H](C(=O)NCCc1nc(-c2nc(C(=O)NCCC[S+](C)C)cs2)cs1)[C@@H](C)O)C(OC1OC(CO)C(O)C(O)C1OC1OC(CO)C(O)C(OC(N)=O)C1O)c1cnc[nH]1 (some centres undefined), the T/C (dose: 1.0 mg/kg/injection, schedule: Q01DX009 (ip), vehicle: saline) was 115 % of control, the T/C [5] was 111 % of control and the T/C [6] was 107 % of control. For the same compound, the T/C [7] was 111 % of control and the T/C [8] was 111 % of control.
